In patent US10894817B2, “Fatty acid modified urocortin-2 analogs for the treatment of diabetes and chronic kidney disease” (priority 2016, dated 2021):
Starred links: 1 amine or outer side, 2 acyl side, 3 side chain; linkers in the order of their positions; H or OH if unused. Residues, ends and D or L forms follow the SMILES beside them. Groups on a side chain read outwards from the residue. *: point of attachment. C18 diacid = O=C(O)CCCCCCCCCCCCCCCCC(=O)*; γGlu = O=C(O)[C@H](CCC(=O)[*:2])N[*:1]; Palmitoyl = CCCCCCCCCCCCCCCC(=O)*; AEEA = NCCOCCOCC(=O)O

Biological target: T1, human CRHR2b (Homo sapiens, UniProt Q13324)
T1 construct: expressed in transfected cells; host or cells: Chinese Hamster Ovary (CHO) cells, transient transfection
T1 sequence (Q13324 1-438 isoform Q13324-2): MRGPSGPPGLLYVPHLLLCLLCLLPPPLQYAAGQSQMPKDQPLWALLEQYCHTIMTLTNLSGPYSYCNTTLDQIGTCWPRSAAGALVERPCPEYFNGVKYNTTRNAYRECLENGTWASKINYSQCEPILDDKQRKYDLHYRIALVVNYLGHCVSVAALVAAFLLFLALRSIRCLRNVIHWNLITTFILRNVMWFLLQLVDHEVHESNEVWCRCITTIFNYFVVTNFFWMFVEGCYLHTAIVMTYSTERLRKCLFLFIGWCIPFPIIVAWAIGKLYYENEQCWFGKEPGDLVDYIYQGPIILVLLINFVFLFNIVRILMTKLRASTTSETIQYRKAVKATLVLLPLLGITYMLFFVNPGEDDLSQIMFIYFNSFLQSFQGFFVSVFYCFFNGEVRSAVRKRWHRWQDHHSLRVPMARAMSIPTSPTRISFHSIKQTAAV
Experiment: human CRHR2b cell-based cAMP assay
Conditions: cAMP assay; Table 26, compounds of Example 9; read-out: hCRHR2b Average EC50
Outline: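 ED50 values are means ± SEM over several runs, curve-fitted from cAMP in pmol, calibrated against unlabeled-cAMP standards. Detection was HTRF competition, ratio 665/620 nm, after 30 min agonist exposure at 37 °C.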

| EC50 [nM] | SMILES |
| --- | --- |
| 331 | CCCCCCCCCCCCCCCC(=O)N[C@@H](CCC(=O)NCCCC[C@H](NC(=O)[C@H](CCC(N)=O)NC(=O)[C@H](CCC(N)=O)NC(=O)[C@H](CCCCN)NC(=O)[C@H](CCC(=O)O)NC(=O)[C@H](CCCCN)NC(=O)[C@H](CCC(=O)O)NC(=O)[C@H](CCC(N)=O)NC(=O)[C@H](CCCCN)NC(=O)[C@H](CCC(=O)O)NC(=O)[C@H](CCC(N)=O)NC(=O)[C@H](CCC(=O)O)NC(=O)[C@H](CC(C)C)NC(=O)[C@H](CC(C)C)NC(=O)[C@@H](NC(=O)[C@H](CCC(N)=O)NC(=O)[C@H](CC(C)C)NC(=O)[C@H](CC(C)C)NC(=O)CNC(=O)[C@@H](NC(=O)[C@@H]1CCCN1C(=O)[C@@H](NC(=O)[C@H](CC(=O)O)NC(=O)[C@H](CC(C)C)NC(=O)[C@H](CO)NC(=O)[C@H](CC(C)C)NC(=O)[C@@H](NC(=O)[C@@H](N)[C@@H](C)CC)C(C)C)C(C)C)[C@@H](C)CC)[C@@H](C)CC)C(=O)N[C@H](C(=O)N[C@H](C(=O)N[C@@H](CC(N)=O)C(=O)N[C@@H](C)C(=O)N[C@@H](CCCNC(=N)N)C(=O)N[C@H](C(=O)N[C@@H](CC(C)C)C(=O)N[C@@H](C)C(=O)N[C@@H](CCCNC(=N)N)C(=O)N[C@H](C(N)=O)C(C)C)[C@@H](C)CC)[C@@H](C)O)[C@@H](C)O)C(=O)O [Compound 36] (H-IVLSLDVPIGLLQILLEQEKQEKEKQQK([γGlu-Palmitoyl])TTNARILARV-NH2) |
| 24.1 | CCCCCCCCCCCCCCCC(=O)N[C@@H](CCC(=O)NCCCC[C@H](NC(=O)[C@H](C)NC(=O)[C@H](CCC(N)=O)NC(=O)[C@H](CCC(N)=O)NC(=O)[C@H](CCCCN)NC(=O)[C@H](CCC(=O)O)NC(=O)[C@H](CCCCN)NC(=O)[C@H](CCC(=O)O)NC(=O)[C@H](CCC(N)=O)NC(=O)[C@H](CCCCN)NC(=O)[C@H](CCC(=O)O)NC(=O)[C@H](CCC(N)=O)NC(=O)[C@H](CCC(=O)O)NC(=O)[C@H](CC(C)C)NC(=O)[C@H](CC(C)C)NC(=O)[C@@H](NC(=O)[C@H](CCC(N)=O)NC(=O)[C@H](CC(C)C)NC(=O)[C@H](CC(C)C)NC(=O)CNC(=O)[C@@H](NC(=O)[C@@H]1CCCN1C(=O)[C@@H](NC(=O)[C@H](CC(=O)O)NC(=O)[C@H](CC(C)C)NC(=O)[C@H](CO)NC(=O)[C@H](CC(C)C)NC(=O)[C@@H](NC(=O)[C@@H](N)[C@@H](C)CC)C(C)C)C(C)C)[C@@H](C)CC)[C@@H](C)CC)C(=O)N[C@H](C(=O)N[C@@H](CC(N)=O)C(=O)N[C@@H](C)C(=O)N[C@@H](CCCNC(=N)N)C(=O)N[C@H](C(=O)N[C@@H](CC(C)C)C(=O)N[C@@H](C)C(=O)N[C@@H](CCCNC(=N)N)C(=O)N[C@H](C(N)=O)C(C)C)[C@@H](C)CC)[C@@H](C)O)C(=O)O [Compound 37] (H-IVLSLDVPIGLLQILLEQEKQEKEKQQAK([γGlu-Palmitoyl])TNARILARV-NH2) |
| 2.33 | CCCCCCCCCCCCCCCC(=O)N[C@@H](CCC(=O)N[C@@H](CCC(=O)NCCCC[C@H](NC(=O)[C@H](C)NC(=O)[C@H](CCC(N)=O)NC(=O)[C@H](CCC(N)=O)NC(=O)[C@H](CCCCN)NC(=O)[C@H](CCC(=O)O)NC(=O)[C@H](CCCCN)NC(=O)[C@H](CCC(=O)O)NC(=O)[C@H](CCC(N)=O)NC(=O)[C@H](CCCCN)NC(=O)[C@H](CCC(=O)O)NC(=O)[C@H](CCC(N)=O)NC(=O)[C@H](CCC(=O)O)NC(=O)[C@H](CC(C)C)NC(=O)[C@H](CC(C)C)NC(=O)[C@@H](NC(=O)[C@H](CCC(N)=O)NC(=O)[C@H](CC(C)C)NC(=O)[C@H](CC(C)C)NC(=O)CNC(=O)[C@@H](NC(=O)[C@@H]1CCCN1C(=O)[C@@H](NC(=O)[C@H](CC(=O)O)NC(=O)[C@H](CC(C)C)NC(=O)[C@H](CO)NC(=O)[C@H](CC(C)C)NC(=O)[C@@H](NC(=O)[C@@H](N)[C@@H](C)CC)C(C)C)C(C)C)[C@@H](C)CC)[C@@H](C)CC)C(=O)N[C@H](C(=O)N[C@@H](CC(N)=O)C(=O)N[C@@H](C)C(=O)N[C@@H](CCCNC(=N)N)C(=O)N[C@H](C(=O)N[C@@H](CC(C)C)C(=O)N[C@@H](C)C(=O)N[C@@H](CCCNC(=N)N)C(=O)N[C@H](C(N)=O)C(C)C)[C@@H](C)CC)[C@@H](C)O)C(=O)O)C(=O)O [Compound 38] (H-IVLSLDVPIGLLQILLEQEKQEKEKQQAK([γGlu-γGlu-Palmitoyl])TNARILARV-NH2) |
| 27 | CCCCCCCCCCCCCCCC(=O)N[C@@H](CCC(=O)NCCCC[C@H](NC(=O)[C@@H](NC(=O)[C@H](C)NC(=O)[C@H](CCC(N)=O)NC(=O)[C@H](CCC(N)=O)NC(=O)[C@H](CCCCN)NC(=O)[C@H](CCC(=O)O)NC(=O)[C@H](CCCCN)NC(=O)[C@H](CCC(=O)O)NC(=O)[C@H](CCC(N)=O)NC(=O)[C@H](CCCCN)NC(=O)[C@H](CCC(=O)O)NC(=O)[C@H](CCC(N)=O)NC(=O)[C@H](CCC(=O)O)NC(=O)[C@H](CC(C)C)NC(=O)[C@H](CC(C)C)NC(=O)[C@@H](NC(=O)[C@H](CCC(N)=O)NC(=O)[C@H](CC(C)C)NC(=O)[C@H](CC(C)C)NC(=O)CNC(=O)[C@@H](NC(=O)[C@@H]1CCCN1C(=O)[C@@H](NC(=O)[C@H](CC(=O)O)NC(=O)[C@H](CC(C)C)NC(=O)[C@H](CO)NC(=O)[C@H](CC(C)C)NC(=O)[C@@H](NC(=O)[C@@H](N)[C@@H](C)CC)C(C)C)C(C)C)[C@@H](C)CC)[C@@H](C)CC)[C@@H](C)O)C(=O)N[C@@H](CC(N)=O)C(=O)N[C@@H](C)C(=O)N[C@@H](CCCNC(=N)N)C(=O)N[C@H](C(=O)N[C@@H](CC(C)C)C(=O)N[C@@H](C)C(=O)N[C@@H](CCCNC(=N)N)C(=O)N[C@H](C(N)=O)C(C)C)[C@@H](C)CC)C(=O)O [Compound 39] (H-IVLSLDVPIGLLQILLEQEKQEKEKQQATK([γGlu-Palmitoyl])NARILARV-NH2) |
| 55.9 | CC[C@H](C)[C@H](N)C(=O)N[C@H](C(=O)N[C@@H](CC(C)C)C(=O)N[C@@H](CO)C(=O)N[C@@H](CC(C)C)C(=O)N[C@@H](CC(=O)O)C(=O)N[C@H](C(=O)N1CCC[C@H]1C(=O)N[C@H](C(=O)NCC(=O)N[C@@H](CC(C)C)C(=O)N[C@@H](CC(C)C)C(=O)N[C@@H](CCC(N)=O)C(=O)N[C@@H](CCCCNC(=O)COCCOCCNC(=O)COCCOCCNC(=O)CC[C@H](NC(=O)CC[C@H](NC(=O)CCCCCCCCCCCCCCCCC(=O)O)C(=O)O)C(=O)O)C(=O)N[C@@H](CC(C)C)C(=O)N[C@@H](CC(C)C)C(=O)N[C@@H](CCC(=O)O)C(=O)N[C@@H](CCC(N)=O)C(=O)N[C@@H](CCC(=O)O)C(=O)N[C@@H](CCCCN)C(=O)N[C@@H](CCC(N)=O)C(=O)N[C@@H](CCC(=O)O)C(=O)N[C@@H](CCCCN)C(=O)N[C@@H](CCC(=O)O)C(=O)N[C@@H](CCCCN)C(=O)N[C@@H](CCC(N)=O)C(=O)N[C@@H](CCC(N)=O)C(=O)N[C@@H](C)C(=O)N[C@H](C(=O)N[C@H](C(=O)N[C@@H](CC(N)=O)C(=O)N[C@@H](C)C(=O)N[C@@H](CCC(N)=O)C(=O)N[C@H](C(=O)N[C@@H](CC(C)C)C(=O)N[C@@H](C)C(=O)N[C@@H](Cc1c[nH]cn1)C(=O)N[C@H](C(N)=O)C(C)C)[C@@H](C)CC)[C@@H](C)O)[C@@H](C)O)[C@@H](C)CC)C(C)C)C(C)C [Compound 40] (H-IVLSLDVPIGLLQK([AEEA-AEEA-γGlu-γGlu-C18 diacid])LLEQEKQEKEKQQATTNAQILAHV-NH2) |
| 207 | CC[C@H](C)[C@H](N)C(=O)N[C@H](C(=O)N[C@@H](CC(C)C)C(=O)N[C@@H](CO)C(=O)N[C@@H](CC(C)C)C(=O)N[C@@H](CC(=O)O)C(=O)N[C@H](C(=O)N1CCC[C@H]1C(=O)N[C@H](C(=O)NCC(=O)N[C@@H](CC(C)C)C(=O)N[C@@H](CC(C)C)C(=O)N[C@@H](CCC(N)=O)C(=O)N[C@H](C(=O)N[C@@H](CCCCNC(=O)COCCOCCNC(=O)COCCOCCNC(=O)CC[C@H](NC(=O)CC[C@H](NC(=O)CCCCCCCCCCCCCCCCC(=O)O)C(=O)O)C(=O)O)C(=O)N[C@@H](CC(C)C)C(=O)N[C@@H](CCC(=O)O)C(=O)N[C@@H](CCC(N)=O)C(=O)N[C@@H](CCC(=O)O)C(=O)N[C@@H](CCCCN)C(=O)N[C@@H](CCC(N)=O)C(=O)N[C@@H](CCC(=O)O)C(=O)N[C@@H](CCCCN)C(=O)N[C@@H](CCC(=O)O)C(=O)N[C@@H](CCCCN)C(=O)N[C@@H](CCC(N)=O)C(=O)N[C@@H](CCC(N)=O)C(=O)N[C@@H](C)C(=O)N[C@H](C(=O)N[C@H](C(=O)N[C@@H](CC(N)=O)C(=O)N[C@@H](C)C(=O)N[C@@H](CCC(N)=O)C(=O)N[C@H](C(=O)N[C@@H](CC(C)C)C(=O)N[C@@H](C)C(=O)N[C@@H](Cc1c[nH]cn1)C(=O)N[C@H](C(N)=O)C(C)C)[C@@H](C)CC)[C@@H](C)O)[C@@H](C)O)[C@@H](C)CC)[C@@H](C)CC)C(C)C)C(C)C [Compound 41] (H-IVLSLDVPIGLLQIK([AEEA-AEEA-γGlu-γGlu-C18 diacid])LEQEKQEKEKQQATTNAQILAHV-NH2) |
